Results on two molecules are retold here after publication PMC12834051, “Improved synthesis and physicochemical characterization of the selective serotonin 2A receptor agonist 25CN-NBOH” (Beilstein Journal of Organic Chemistry, 2026).

Data set [1] can be described thus: Thermodynamic solubility in ultrapure water. Type of data set: physicochemical. As to the method: The solubility of 1·HCl in water was determined at 25 ± 0.5 °C by adding 30 mg to ultrapure water (3 mL) in screw-capped glass vials, giving a suspension where a solid precipitate could be observed at all timepoints. The samples were ultrasonicated for 3 min before being rotated in a temperature-controlled Incubator Hood TH 30 (Edmund Bühler, Bodelshausen, Germany). Sample aliquots of 600 µL were withdrawn after 30, 48, and 74 h and transferred to Eppendorf tubes. The samples were centrifuged at 19,000g for 15 min using a MiniSpin Plus (Eppendorf, Hamburg, Germany) and the supernatant filtered through a 0.45 µm PVDF filter (Ø = 4 mm, Phenomenex) with the first 400 µL being discarded. Samples were diluted with ultrapure water before measurement by a UV spectrophotometry at 241 nm using 10 mm micro quartz cuvettes (Hellma GmbH & Co. KG, Müllheim, Germany) and a Cary 60 UV–vis spectrophotometer (Agilent Technologies). Cary WinUV Simple Reads Application (Version 5.0.0, Agilent Technologies) was used for instrument control and data collection. The experiment was performed in triplicate.

Data set [2] is described as follows: Stability in solution (HPLC peak areas). Type of data set: physicochemical. Here is the method: The stability of 1 was determined in 67 mM sodium phosphate buffer (pH 7.40, I = 0.18 M) and water at 25 ± 0.5 °C. The solutions comprising 0.2 mg/mL of 1·HCl were kept in a temperature-controlled incubator, and samples were measured by HPLC immediately after sample preparation as well as after one and four weeks for the experiments in phosphate buffer and after four weeks for experiments in ultrapure water. The stability of 1 was assessed based on peak areas. The experiment was performed in triplicate.
(§1) Samples from distribution coefficient and stability experiments were analyzed using an Agilent 1260 Infinity system (Agilent Technologies, Santa Clara, CA, USA) equipped with a column oven (Mikrolab Aarhus, Højbjerg, Denmark) and an Agilent 1100 series system (Agilent Technologies), respectively. Reversed-phase chromatography was performed using a Gemini C18 column (150 × 4.60 mm, 5 µm) with a Gemini C18 precolumn (4 × 3.00 mm, Phenomenex, Torrance, CA, USA). Detection was performed at 241 nm, the column temperature was 30 °C, the injection volume was 10 µL, and the flow rate was 1 mL/min. The mobile phase consisted of acetonitrile and 0.1% phosphoric acid in the ratios 35:65 and 25:75, v/v for the distribution coefficient and stability experiments, respectively. The ChemStation software (Version B.04.03, Agilent Technologies) was used for instrument control and data collection.

The nature of data set [3]: Apparent pKa by spectrophotometric titration (inForm, Sirius). Type of data set: physicochemical. To be noted: for pKa: concentration-based, 30.8 °C, I = 0.172 M. Here is the method:
The molar absorption coefficients and apparent pKa values of 1 were determined by spectrophotometry using an inForm instrument from Sirius Analytical (Forest Row, UK). Molar absorption coefficients (absorbance), as a function of the wavelength (185–750 nm) and pH in the interval 2.0–12.0, were determined at 30.8 °C. A stock solution (5.0 mM) of 1·HCl in N-methyl-2-pyrrolidone (NMP) was added to 36 mL of an ionic strength-adjusted buffer solution (I = 0.172 M) containing acetate, phosphate, and sodium chloride while stirring at 300 rpm. The concentration of 1 during measurements ranged from 13–27 µM (three experiments each with three titrations were performed). Potentiometric titrations from high to low pH and low to high pH were performed by addition of 0.50 M HCl and 0.50 M NaOH, respectively, while UV–vis spectra were recorded using the fiber optic probe (10 mm light path) of the inForm diode array spectrometer. The instrument control and data analysis were performed using the inForm software Version 1.1.3.6 (Sirius Analytical, Forest Row, UK).

For data set [4] the following is noted: in vivo, rodents; maximal brain exposure rapidly attained; cited from earlier work.
A further data set concerns MDCK. Conditions: MDCK assay, cited from earlier work.
The conditions of data set [5]: buffer at pH 7.4; cited from earlier work.
Data set [6] can be described thus: Octanol/buffer distribution coefficient (logD). Type of data set: physicochemical. Conditions: 25 °C. As to the method:
The pH-dependent octanol/buffer distribution coefficients of 1 were determined at 25 ± 0.5 °C using the following buffers: 50 mM sodium citrate (pH 5.00, I = 0.15 M), 67 mM sodium phosphate (pH 7.40, I = 0.18 M), and 50 mM sodium carbonate (pH 9.50, I = 0.15 M). The ionic strength of the buffers was adjusted by adding a calculated amount of potassium chloride. The octanol phases were saturated with the appropriate buffer solution, and vice versa, before the start of the experiment. Solutions of 2, 0.5, and 0.1 mg/mL of the drug in the buffer solutions at pH 5.00, 7.40, and 9.50, respectively, were prepared. The organic phase was hereafter added to the buffer solution in a ratio of 1:9 at pH 5.00 and 7.40 and 1:19 at pH 9.50. The samples were rotated for 24 h in a temperature-controlled incubator at 25 °C. The concentration of 1 in the buffer solution before and after partitioning, ci and cw, respectively, was determined by HPLC, from which distribution coefficients, D, were calculated according to
where Vw and Vo are the volume of the buffer solution and organic phase, respectively. Each experiment was conducted in triplicate.
as §1

[7] abbreviates: pH 7.4, calculated species distribution.

Each structure is given as a SMILES string. ≈ marks a conversion by molar mass, not a printed value. Where “and” joins values, the source holds several entries; their conditions need not be identical. Equal values may be shown once. Entries after “also recorded” stand apart in the source; their conditions may differ. Where a name gives a salt, the structure may show the parent alone. Read-outs that look alike come from different tables or passages of the source. Bounds are passed on as bounds.

The term thermodynamic solubility denotes the concentration in solution at equilibrium with solid. In the case of `COc1cc(CCNCc2ccccc2O)c(OC)cc1C#N` [1·HCl, 25CN-NBOH·HCl], the “pH of saturated solution in water” value in data set [1] (saturated solution of 1·HCl in ultrapure water) is 6.24 ± 0.01 and 6.24. In data set [1] (ultrapure water, 25 °C, pH 6.24, water, thermodynamic from solid), the thermodynamic solubility is 8500 ± 300 µg/mL. For the same molecule, the kinetic solubility entry in data set [1] (water, preparing 5 mg/mL requires shaking for several minutes) is recorded as “low”. Also, the “stability in solution in phosphate buffer” value in data set [2] (phosphate buffer pH 7.4, 25 °C, 4 weeks) was “stable”. For the same molecule, the stability in water entry in data set [2] (water, 25 °C, 4 weeks (1 month)) is given as “could not detect additional species; also recorded: stable”.
As a reminder, the pKa is the negative logarithm of the acid dissociation constant. Broadly, the logD is the decadic logarithm of the distribution of all forms, ionised or not, between an organic phase and buffer at a given pH. A low value points to a more hydrophilic compound. Turning to `COc1cc(CCNCc2ccccc2O)c(OC)cc1C#N` [Compound 1, 25CN-NBOH], the pKa was 10.7 ± 0.1 in data set [3] (read-out: apparent pKa (phenol)) and 8.4 ± 0.1 in data set [3] (read-out: apparent pKa (protonated amine)). The “fraction present in the protonated form” value is more than 99% in data set [3] (pH 6.24, saturated solution of 1·HCl in ultrapure water) and “approximately 90%” in data set [3] (setting [7]). Also, the “fraction present as the neutral species” value in data set [3] (setting [7]) was approximately 10%; in data set [3] (pH 9.5, calculated species distribution) it was 87%. Moreover, the BBB permeability result in data set [4] is given as “excellent BBB permeability”. The “permeability apical–basal” value in the data set on MDCK (apical–basal) was 29 ×10⁻⁶ cm/s. Further, the “permeability basal–apical” value in the data set with MDCK (basal–apical) was 20 ×10⁻⁶ cm/s. For the same molecule, the solubility in buffer in data set [5] is 400 µg/mL (≈ 1280 µM). Besides, the log distribution coefficient (logD) at 24 h in data set [6] (pH 5.00, octanol/50 mM sodium citrate) is -0.76 ± 0.01; in data set [6] (pH 7.4, pH 7.40, octanol/67 mM sodium phosphate) it was 1.59 ± 0.02; in data set [6] (pH 9.5, pH 9.50, octanol/50 mM sodium carbonate), 2.58 ± 0.01.
